Results as given in a melting point compilation (Tetko et al.; mined from patent text by program, amines drawn as free bases though some values may be those of a salt).
Where a name gives a salt, the structure may show the parent alone. Residues, ends and D or L forms follow the SMILES beside them. *: point of attachment. Tfa = O=C(C(F)(F)F)*; NHPh = c1ccc(N*)cc1

| SMILES | melting point |
| --- | --- |
| CCCCCCCCCCCCOc1ccc(C(=O)c2ccc(Sc3ccccc3)cc2)c(O)c1 | 59 to 60 °C |
| CC(=O)OC1CC(C)(C)C(OC(=O)c2ccccc2)C(O)C=C1C (configuration not stated) | 113 to 114 °C |
| CCOP(=O)(CC(=O)Nc1cc2c(Nc3ccc(Br)c(Br)c3)ncnc2cn1)OCC | 120 to 124 °C |
| COC(=O)c1ccc2c([N+](=O)[O-])cc3c(c2c1)C(CCl)CN3 (configuration not stated) | 161 to 163 °C |
| CCc1cc([N+](=O)[O-])c(=O)[nH]c1COCc1ccccc1 | 157 to 158 °C |
| NC(=O)c1cncc(OCC(O)CO)c1 (configuration not stated) | 197 to 199 °C |
| CC(C)N1CC2CC(CN(C(=O)c3ccc(Cl)cc3)C2)C1 | 97 to 98 °C |
| CC(C)c1nsc(N)c1C#N | 130 to 132 °C |
| N#CC(C#N)=C1N(CCCN2CCCCC2)CCN1C1CCN(Cc2ccccc2)CC1 | 156 to 158 °C |
| CCOC(=O)C1Oc2ccc(Cl)c(Cl)c2O1 (configuration not stated) | 58 to 61 °C |
| COc1ncc(Br)cc1C(O)C=Cc1ccc(Cl)c(Cl)c1 (configuration not stated) | 149 to 150 °C |
| C=C1C=Cc2cc(C(=O)O)ccc2OC1 | 188 °C |
| N#CC1CN1C(=O)NC(=O)C1CCCCC1 (configuration not stated) | 142 to 144 °C |
| O=C(NCCCCO)OCc1ccccc1 | 80 to 81 °C |
| COC(=O)CC=Cc1c(C(C)C)cc(C(C)C)cc1C(C)C | 61 to 63 °C |
| Cc1c(N2C(=O)C[C@@](O)(C3CC3)[C@@H]2C)ccc(C#N)c1Cl | 231 to 236 °C |
| CCCn1nc2c(N)nc3ccccc3c2c1CC(C)(C)C#N | 248 to 250 °C |
| COC(=O)n1c(Cl)nc2c(C)cccc21 | 90 to 91 °C |
| O=S1(=O)N=C(NC23CC4CC(CC(C4)C2)C3)Nc2cc(Cl)sc21 | 339 to 340 °C |
| C#CC(=O)Oc1ccc(OCc2ccccc2)cc1 | 45 to 47.5 °C |
| O=C(O)C1CCC(=O)N1Cc1cccc(F)c1 (configuration not stated) | 114 to 116 °C |
| Cc1ccc(-c2c(CNC(=O)OC(C)(C)C)n(CC(C)C)c(=O)c3ccc(/C=C/C(N)=O)cc23)cc1 | 152 to 154 °C |

| SMILES | melting point |
| --- | --- |
| c1cnc2ccc(Cn3nnc4ccc(-c5ccc6c(c5)OCO6)nc43)cc2c1 | 179 to 181 °C |
| c1cc(-n2ccnc2)cc(-n2cnc3cc(-c4ccco4)ccc32)c1 | 175 to 177 °C |
| COC(=O)[C@H]1CN(CCO)CC[C@H]1NC(=O)OCc1ccccc1 | 73 °C |
| CC(C)Cc1cccc(CCCn2c(=O)c3c(Cl)cc(Cl)cc3n(Cc3ccccc3)c2=O)c1 | 108 to 111 °C |
| O=CNc1ccc(-c2c[nH]cn2)cc1 | 108 to 109 °C |
| NC(=S)/C=C/c1cc([N+](=O)[O-])ccc1Cl | 236 to 238 °C |
| CNC(=O)C=C1CC2(CCCC2)c2ccccc21 | 178 °C |
| COc1cc(C(=O)CBr)cc(Cl)c1OC | 76.5 to 78 °C |
| CCc1cn(N=Cc2ccccc2)c(N)n1 | 164 to 167 °C |
| CSc1nc2ccnn2c(N)c1C#N | > 240 °C |
| Cc1nc2c(O)cccn2c(=O)c1CCO | 150 °C |
| CC1=Cc2ccc(Cl)cc2C(c2ccc(N)c(C)c2)=NN1C(=O)NC1CC1 | 233 to 236 °C |
| N#CC(=CN1CCOCC1)Cc1ccc2c(c1)OCO2 | 85 to 85.5 °C |
| COc1ccc(C(=O)C#CCO)c(OC)c1OC | 82 to 83 °C |
| OCc1ccc(-c2cc3nccnc3[nH]2)cc1 | 284 to 285 °C |
| CC(C)N(C[C@H](O)[C@H](Cc1ccccc1)NC(=O)[C@H](CC(N)=O)NC(=O)c1ccccn1)NC(=O)OC(C)(C)C | 101 to 108 °C |
| O=Cc1ccc(-c2ccc(O)cc2)c2sccc12 | 202 to 204 °C |
| CCOC(=O)c1cn(C2CC2)c2c(F)c(C#Cc3cc(Cc4cnc(N)nc4N)cc(OC)c3OC)c(F)cc2c1=O | > 230 °C |
| CCCCCCCS(=O)(=O)c1nn2c(=O)c(C)c(F)nc2s1 | 143 to 146 °C |
| CCCCCCCCCCCCCCCCCCOc1cc(NC(C)=O)cc([N+](=O)[O-])c1 | 103 to 107 °C |
| Oc1ccc(C2(c3ccc(O)c(F)c3)c3ccccc3-c3ccccc32)cc1F | 219 to 221 °C |

Continued, values first:

| melting point | SMILES |
| --- | --- |
| 142 to 144 °C | O=C1N(CC2CCOCC2)c2ccccc2C12COc1cc3c(cc12)OCO3 (configuration not stated) |
| 137 to 138 °C | O=c1cc(-c2ccccc2F)oc(N2CCOCC2)c1 |
| 135 °C | CC(C)N(CCC(=O)OC1c2ccccc2C(=O)N1c1ccc2ccc(Cl)nc2n1)C(C)C (configuration not stated) |
| 222 to 223 °C | COc1ccc(C(=O)Nc2cc(-c3c(-c4ccc(F)c(C)c4)nc4cccnn34)ccn2)cc1 |
| > 300 °C | Cc1cccc2cc3c(=O)[nH]cc(C(=O)O)c3nc12 |
| 165 to 166 °C | COc1cc(COc2ccccc2CC(=O)O)ccc1OCc1nc(-c2ccccc2)oc1C |
| 260 to 268 °C | Nc1c(-c2ccc(-c3cccnc3)cc2)nc2ccc(F)cc2c1C(=O)O |
| 139 to 140 °C | N#CCCNC(=O)c1cccc(-c2cccc(Oc3cccc(Cl)c3)n2)c1 |
| 220 to 223 °C | O=C(O)c1ccc(Oc2ccccc2C(=O)O)cc1 |
| 180 to 181 °C | CC(C(=O)O)c1cccc(S(=O)(=O)c2ccccc2Cl)c1O (configuration not stated) |
| 88 to 90 °C | Cc1ccc(S(=O)(=O)OCC2Cc3cccc(-c4cccc(F)c4)c3O2)cc1 (configuration not stated) |
| 100 to 101 °C | Cc1oc(-c2ccccc2Cl)nc1CCOc1ccc([N+](=O)[O-])cn1 |
| 163 to 164 °C | Cc1cc(-c2sc(N3CCN(Cc4cccc(C(F)(F)F)c4)C3=O)nc2C)n[nH]1 |
| 257 °C | CC(=O)Nc1ccc(-c2cc(-c3c(-c4cccc(C)n4)nc4ccccn34)ccn2)cc1 |
| 214 to 215 °C | CC(=O)Oc1ccc(CCc2ccc(NC(=O)C3=C(O)c4ccccc4SC3)cc2)cc1OC(C)=O |
| 186 to 188 °C | COCc1cc(O)cc2cc(-c3ccc(O)cc3)oc12 |
| 127 to 128 °C | O=C(Cc1ccccc1)c1ccc(C(F)(F)F)cc1 |
| 260 °C | Nc1ccc(S(=O)(=O)c2cc(-c3ccsc3)nc(N3CCCC3)c2)cc1 |
| 184 °C | COc1ccc(C2=NN(Cc3ccc(NC(=O)c4cccnc4)cc3)C(=O)CC2)cc1OC |
| 242 to 243 °C | COc1cc(-c2nnn[nH]2)ccc1Cc1cn(C)c2ccc(NC(=O)CC3CCCC3)cc12 |
| 202 to 204 °C | CN1CCC(c2c[nH]c3ccc(NC(=O)c4cc5ccccc5s4)nc23)CC1 |
| 93 to 97 °C | CCOC(=O)COc1cccc2c1C[C@@H](NCc1ccccc1)[C@H](O)C2 (relative stereo) |
| 185 to 188 °C | O=C(NCc1ccc2c(c1)OCO2)Nc1cc(N2CC(c3ccccc3)CC2=O)ccn1 (configuration not stated) |
| 88 to 91 °C | CC(=O)c1ccc(-c2ccc(F)cc2)c(N)c1 |
| 204 to 207 °C | C[C@H](NC(=O)C(F)(F)F)C(=O)N1CCC[C@H]1C(=O)Nc1ccccc1 (Tfa-Ala-Pro-NHPh) |
| 249 to 251 °C | COc1cc(-c2ccc3cnc(Nc4ccc(C5CCN(CC(N)=O)CC5)cc4)nn23)c(OC)nn1 |
| 175 to 176 °C | Clc1ccc2nc(Cl)nc(-c3ccccc3Cl)c2c1 |
| 111 to 114 °C | O=c1oc(-c2c(F)cccc2F)nn1-c1ccccc1Br |
| 126 to 128 °C | CS(=O)(=O)Nc1cc(NC(=O)CCl)ccc1Oc1ccccc1 |
